Assay results taken from paper PMC10874388, “Cyclic peptides discriminate BCL-2 and its clinical mutants from BCL-XL by engaging a single-residue discrepancy” (Nature Communications, 2024).
Where “and” joins values, the source holds several entries; their conditions need not be identical. Identical values can stand only once.

Legend:
Assay type in all cases: cell-based
Jurkat cells = assay: Cell viability assay (CellTiter-Glo), Jurkat
Method in brief: (§1)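 Compounds added in serum-free medium for 4 h (RS4:11: 6 h), then FBS brought to 10% and incubation continued to 24 h or 48 h total at 37 °C, 5% CO2. Viability by CellTiter-Glo 2.0 luminescence; IC50 calculated.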

[1] = system: A549 cells overexpressing BCL-2 G101V; assay: Cell viability assay, A549 stably overexpressing BCL-2 G101V; conditions: A549 BCL2/G101V, single wells
Description: (§2) Cell viability was measured using CellTiter-Glo® 2.0 Reagent (Promega, G9242). […] After different inhibitors were added into serum-free medium and cultured for 4 h (RS4:11 for 6 h), FBS were supplemented to 10% and then incubated totally for 24 h or 48 h. Finally, the IC50 values were calculated based on measurements using a microplate reader (Thermo, Varioskan LUX). Statistical analysis was performed using software GraphPad Prism 7.0.
(§3) Lentivirus packaging vectors pMDLg/pRRE, pRSV-Rev, and pVSV-G were obtained from Prof. Han Jiahuai’s lab (Xiamen University). Lentiviruses were produced using 3rd-generation lentivirus packaging plasmids transiently transfected into HEK293T cells with the constructs of interest using 0.25 M CaCl2. Media was changed after 16 h, and supernatants containing infectious virus particles were harvested 24 h later. A second viral harvest was made following a further 24 h incubation with fresh media. Virus containing supernatant was filtered through a […], and stored at 4 °C or −80 °C until being used. Typically, A549 cells were seeded into 10 cm cell culture dishes at 4 ~ 8 × 10^5 cells/cm^2. An equivalent volume of virus containing culture medium was added along with polybrene (Sigma) to a final concentration of 10 µg/mL. Cells were incubated at 37 °C for 20 h, before they were washed and resuspended in fresh culture media. The expression level of BCL-2 was measured by qPCR and western blot methods.

Daudi cells = assay: Cell viability assay (CellTiter-Glo), Daudi; conditions: for raw viability signal, replicates: Daudi
Method in brief: as §1

RS4:11 cells = assay: Cell viability assay (CellTiter-Glo), RS4:11; conditions: for raw luminescence reading / inhibition rate: RS4:11, single wells
Method in brief: as §1

[2] = system: A549 cells overexpressing BCL-2 WT; assay: Cell viability assay, A549 stably overexpressing BCL-2 WT; conditions: A549 BCL2-WT, single wells
Description: as §2, §3

O=C(c1cc(-c2cc3c(cc2C(=O)N2Cc4ccccc4C[C@H]2CN2CCOCC2)OCO3)n2c1CCCC2)N(c1ccccc1)c1ccc(O)cc1 [S55746]
raw viability signal, replicates (Jurkat cells; 1.5625 uM): 1714000 and 1704000 and 1684000 and 1696000 and 1705000 and 1721000
raw viability signal, replicates (Jurkat cells; 3.125 uM): 1448000 and 1401000 and 1343000 and 1377000 and 1375000 and 1402000
raw viability signal, replicates (Jurkat cells; 6.25 uM): 1130000 and 1065000 and 1037000 and 1061000 and 1063000 and 1084000
raw viability signal, replicates (Jurkat cells; 12.5 uM): 892300 and 842800 and 825800 and 842200 and 844000 and 860800
raw viability signal, replicates (Jurkat cells; 25 uM): 395000 and 492300 and 419200 and 469600 and 467400 and 468800
raw viability signal, replicates (Jurkat cells; 50 uM): 146000 and 160200 and 184200 and 190000 and 211800 and 228200
BCL2/G101V inhibiton rate ([1]; 3.125 uM): 8% and 4.44% and 2.43% and 0.638% and 1% and 2%
raw luminescence reading ([1]; 3.125 uM): 671600 and 698900 and 713600 and 726700 and 723800 and 716000
BCL2/G101V inhibiton rate ([1]; 6.25 uM): 13% and 10% and 7.56% and 8% and 9%
raw luminescence reading ([1]; 6.25 uM): 633100 and 639000 and 656800 and 676100 and 673100 and 668300
BCL2/G101V inhibiton rate ([1]; 12.5 uM): 26% and 24% and 22% and 23% and 21%
raw luminescence reading ([1]; 12.5 uM): 539700 and 558400 and 568300 and 571800 and 566400 and 579500
BCL2/G101V inhibiton rate ([1]; 25 uM): 24% and 23% and 22% and 21%
raw luminescence reading ([1]; 25 uM): 553400 and 560600 and 571800 and 579800 and 580700 and 578200
BCL2/G101V inhibiton rate ([1]; 50 uM): 39% and 38% and 36% and 35% and 34%
raw luminescence reading ([1]; 50 uM): 444500 and 453000 and 466400 and 464700 and 472100 and 479600
BCL2/G101V inhibiton rate ([1]; 100 uM): 46% and 45% and 42%
raw luminescence reading ([1]; 100 uM): 392800 and 395900 and 399700 and 397700 and 405800 and 422300
BCL2/G101V inhibiton rate ([1]; 200 uM): 48% and 49% and 45% and 44%
raw luminescence reading ([1]; 200 uM): 382600 and 370800 and 376000 and 400600 and 410900
IC50 (Daudi cells; 48 h treatment, CellTiter-Glo): 10 ± 0.4 µM
raw viability signal, replicates (Daudi cells; 3.125 uM): 1593 and 1426 and 1310 and 1450 and 1626 and 1878
raw viability signal, replicates (Daudi cells; 6.25 uM): 1078 and 1072 and 931.3 and 1127 and 973.9 and 1033
raw viability signal, replicates (Daudi cells; 12.5 uM): 455.5 and 506.4 and 780.1 and 751.1 and 919.0 and 638.7
raw viability signal, replicates (Daudi cells; 25 uM): 431.3 and 645.0 and 475.8 and 693.5 and 515.7 and 555.5
raw viability signal, replicates (Daudi cells; 50 uM): 362.9 and 364.8 and 354.3 and 237.1 and 424.9 and 407.4
raw viability signal, replicates (Daudi cells; 100 uM): 330.6 and 360.1 and 410.7 and 529.9 and 565.2 and 706.1
IC50 (RS4:11 cells; 48 h treatment, CellTiter-Glo, small-molecule inhibitors, cells marked (nM)): 4.5 ± 0.1 nM
raw luminescence reading (RS4:11 cells; 2.44141 nM): 232300 and 260200 and 275600 and 316000 and 308700 and 306800
raw luminescence reading (RS4:11 cells; 4.88281 nM): 135300 and 123100 and 129200 and 110700 and 132100 and 115900
inhibition rate (RS4:11 cells; 4.88281 nM, 0.00488281 µM): 53% and 57% and 55% and 61% and 54% and 59%
raw luminescence reading (RS4:11 cells; 9.76562 nM): 75370 and 71000 and 72070 and 63170 and 68200 and 61260
inhibition rate (RS4:11 cells; 9.76562 nM, 0.00976562 µM): 74% and 75% and 78% and 76% and 79%
raw luminescence reading (RS4:11 cells; 19.5312 nM): 38320 and 36520 and 36660 and 31950 and 34870 and 31060
inhibition rate (RS4:11 cells; 19.5312 nM, 0.0195312 µM): 87% and 89% and 88%
raw luminescence reading (RS4:11 cells; 39.0625 nM): 14610 and 13790 and 14580 and 12190 and 12650 and 12610
inhibition rate (RS4:11 cells; 39.0625 nM, 0.0390625 µM): 95% and 96%
raw luminescence reading (RS4:11 cells; 78.125 nM): 4289 and 3678 and 4541 and 3543 and 3931 and 3419
inhibition rate (RS4:11 cells; 78.125 nM, 0.078125 µM): 98% and 99%
raw luminescence reading (RS4:11 cells; 156.25 nM): 1268 and 1101 and 1335 and 1644 and 1000 and 916.1
inhibition rate (RS4:11 cells; 156.25 nM, 0.15625 µM): 100% and 99%
inhibition rate (RS4:11 cells; 312.5 nM): 100%
raw luminescence reading (RS4:11 cells; 312.5 nM): 809.8 and 810.5 and 948.9 and 960.0 and 1116 and 1097
inhibition rate (RS4:11 cells; 625 nM): 99%
raw luminescence reading (RS4:11 cells; 625 nM): 1448 and 1571 and 1720 and 1855 and 1831 and 2149
inhibition rate (RS4:11 cells; 1250 nM): 100%
raw luminescence reading (RS4:11 cells; 1250 nM): 256.4 and 322.1 and 360.1 and 295.0 and 378.2 and 348.9
inhibition rate (RS4:11 cells; 2500 nM): 100%
raw luminescence reading (RS4:11 cells; 2500 nM): 334.6 and 379.8 and 329.3 and 445.4 and 358.3 and 346.2
inhibition rate (RS4:11 cells; 5000 nM): 100%
inhibition rate (RS4:11 cells; 10000 nM): 100%
raw luminescence reading (RS4:11 cells; 10000 nM): 297.6 and 210.5 and 312.1 and 264.1 and 325.8 and 327.8
BCL2-WT inhibition rate ([2]; 3.125 uM): 2.61% and 4.22% and -4.33% and 4% and -2.32%
raw luminescence reading ([2]; 3.125 uM): 861200 and 847000 and 922600 and 850300 and 904800 and 882000
BCL2-WT inhibition rate ([2]; 6.25 uM): 12% and 11% and 10% and 8% and 15%
raw luminescence reading ([2]; 6.25 uM): 774200 and 789000 and 799200 and 813400 and 753900 and 827800
BCL2-WT inhibition rate ([2]; 12.5 uM): 25% and 23% and 22% and 26%
raw luminescence reading ([2]; 12.5 uM): 665800 and 680900 and 679300 and 687300 and 653500 and 700500
BCL2-WT inhibition rate ([2]; 25 uM): 32% and 31%
raw luminescence reading ([2]; 25 uM): 602600 and 612300 and 599000 and 609600 and 600600 and 625900
BCL2-WT inhibition rate ([2]; 50 uM): 45%
raw luminescence reading ([2]; 50 uM): 489600 and 486500 and 483800 and 490200 and 490400 and 500400
BCL2-WT inhibition rate ([2]; 100 uM): 51% and 50%
raw luminescence reading ([2]; 100 uM): 433600 and 432600 and 430000 and 431900 and 437900 and 439800
BCL2-WT inhibition rate ([2]; 200 uM): 51% and 53% and 52% and 50%
raw luminescence reading ([2]; 200 uM): 434700 and 435900 and 419200 and 420100 and 446100 and 441200
